Values after ≈ are worked out from the molar mass of the structure shown. Read-outs that look alike come from different tables or passages of the source.
Legend:
Format in all cases: cell-based
[1] = system: Salmonella typhimurium (TD); assay: In vitro anti-bacterial activity (MIC90), Gram-negative reference strains
Description: Anti-bacterial activity of the compound having Formula III was tested against several Gram-negative reference bacteria strains and compared to the anti-bacterial activity of three commercially available antibiotics (nadifloxacin, ofloxacin, and sparfloxacin).

[2] = system: Bacillis subtilis (ATCC 6633); assay: In vitro anti-bacterial activity (MIC90), Gram-positive reference strains
Description: (§1) Anti-bacterial activity of the compound having Formula III was tested against several Gram-negative reference bacteria strains and compared to the anti-bacterial activity of three commercially available antibiotics (nadifloxacin, ofloxacin, and sparfloxacin). The results are shown in Table 2 as MIC90 values (minimum concentration of the active compound required to inhibit ninety percent of the growth of a specified pathogen, in μg/ml). Anti-bacterial activity of the compound having Formula III was tested against several Gram-positive reference bacteria strains and compared to the anti-bacterial activity of three commercially available antibiotics (nadifloxacin, ofloxacin, and sparfloxacin).

[3] = system: Sarcina lutea (ATCC 9341); assay: as above; settings: Micrococcus luteus, ATCC9341
Description: as §1

[4] = system: Staphylococcus aureus (ATCC 25933); assay: as above; settings: ATCC25933
Description: as §1

[5] = system: Staphylococcus aureus (FDA 209P); assay: as above; settings: FDA209P
Description: as §1

[6] = system: Staphylococcus aureus (Smith); assay: as above
Description: as §1

[7] = system: Staphylococcus epidermidis (ATCC 12228); assay: as above; settings: ATCC12228
Description: as §1

[8] = system: Streptococcus faecalis (ATCC 29212); assay: as above; settings: Enterococcus faecalis, ATCC29212
Description: as §1

[9] = system: Streptococcus faecalis (IFO 12964); assay: as above; settings: Enterococcus faecalis, IFO12964
Description: as §1

[10] = system: Streptococcus pneniae (IID 554); assay: as above; settings: IID554
Description: as §1

[11] = system: Streptococcus pneumoniae (IID 553); assay: as above; settings: IID553
Description: as §1

[12] = system: Streptococcus pyogenes (Cook); assay: as above
Description: as §1

[13] = system: Streptococcus pyogenes (IID 698); assay: as above; settings: IID698
Description: as §1

[14] = system: Staphylococcus aureus (ATCC 33591); assay: In vitro anti-bacterial activity (MIC90), methicillin-resistant Staphylococcus aureus isolates; settings: ATCC33591; methicillin-resistant Staphylococcus aureus (ATCC 33591)
Description: (§2) Anti-bacterial activity of the compound having Formula III was tested against several Gram-negative reference bacteria strains and compared to the anti-bacterial activity of three commercially available antibiotics (nadifloxacin, ofloxacin, and sparfloxacin). The results are shown in Table 2 as MIC90 values (minimum concentration of the active compound required to inhibit ninety percent of the growth of a specified pathogen, in μg/ml).
(§3) Anti-bacterial activity of the compound having Formula III was tested against some methicillin-resistant Staphylococcus aureus bacteria strains and compared to the anti-bacterial activity of three commercially available antibiotics (nadifloxacin, ofloxacin, and sparfloxacin).

[15] = system: Staphylococcus aureus (ATCC 33592); assay: as above; settings: ATCC33592; methicillin-resistant Staphylococcus aureus (ATCC 33592)
Description: as §2, §3

[16] = system: Staphylococcus aureus (ATCC 33593); assay: as above; settings: ATCC33593; methicillin-resistant Staphylococcus aureus (ATCC 33593)
Description: as §2, §3

[17] = system: Staphylococcus aureus (No. 395); assay: as above; settings: methicillin-resistant Staphylococcus aureus (No. 395)
Description: as §2, §3

[18] = system: Staphylococcus aureus (No. 415); assay: as above; settings: methicillin-resistant Staphylococcus aureus (No. 415)
Description: as §2, §3

[19] = system: Staphylococcus aureus (No. 419); assay: as above; settings: methicillin-resistant Staphylococcus aureus (No. 419)
Description: as §2, §3

[20] = system: Staphylococcus aureus (No. 420); assay: as above; settings: methicillin-resistant Staphylococcus aureus (No. 420)
Description: as §2, §3

[21] = system: Staphylococcus aureus (No. 421); assay: as above; settings: methicillin-resistant Staphylococcus aureus (No. 421)
Description: as §2, §3

[22] = system: Clostridium perfringens (KZ 210); assay: microbe, parasite or virus in culture
[23] = system: Peptostreptococcus micros (GIFU 7824); assay: In vitro anti-bacterial activity (MIC90), anaerobic reference bacteria; settings: Parvimonas micra
[24] = system: Peptostreptococcus magnum (GAI 0664); assay: as above
[25] = system: Propionibacterium acnes (GAI 5419); assay: as above; settings: Cutibacterium acnes
[26] = system: Propionibacterium acnes (ATCC 6919); assay: as above; settings: Cutibacterium acnes, ATCC6919
[27] = system: Propionibacterium acnes (ATCC 11828); assay: as above; settings: Cutibacterium acnes, ATCC11828
[28] = system: Bacteroides fragillis (GAI 0675); assay: as above
[29] = system: Bacteroides thetaiotaomicron (GAI 0659); assay: as above
[30] = system: Bacteroides vulgatus (GAI 0673); assay: as above; settings: Phocaeicola vulgatus
[31] = system: Veillonella parvula (GAI 5602); assay: as above
Moraxella species = assay: In vitro anti-bacterial activity (MIC90), ophthalmologic clinical bacteria isolates; settings: Gram-negative
Pseudomonas aeruginosa = assay: as above; settings: Gram-negative
Haemophilus influenzae = assay: as above; settings: Gram-negative
Staphylococcus aureus = assay: as above; settings: Gram-positive
[32] = system: Coagulase-negative Staphylococcus; assay: as above; settings: Gram-positive
Streptococcus pneumoniae = assay: as above; settings: Gram-positive
Corynebacterium species = assay: as above; settings: Gram-positive
Propionibacterium acnes = assay: as above; settings: Cutibacterium acnes, Gram-positive
[33] = system: Ofloxacin-resistant Staphylococcus aureus; assay: as above
[34] = system: Gentamycin-resistant Staphylococcus aureus; assay: as above
[35] = system: Gentamycin-resistant Pseudomonas aeruginosa; assay: as above
[36] = system: Penicillin-resistant Streptococcus pneumoniae; assay: as above

Compound `NC1CCCCN(c2c(F)cc3c(=O)c(C(=O)O)cn(C4CC4)c3c2Cl)C1` (centres unmarked) [Compound Having Formula III] has an MIC90 [1] of 0.05 mμg/mL, an MIC90 [2] of 0.012 µg/mL and an MIC90 [3] of 0.1 µg/mL. For the same compound, the MIC90 [4] was 0.05 µg/mL, the MIC90 [5] was 0.012 µg/mL and the MIC90 [6] was 0.006 µg/mL. It also gave an MIC90 [7] of 0.05 µg/mL, an MIC90 [8] of 0.2 µg/mL and an MIC90 [9] of 0.1 µg/mL. For the same compound, the MIC90 [10] was 0.2 µg/mL, the MIC90 [11] was 0.1 µg/mL and the MIC90 [12] was 0.1 µg/mL. The MIC90 [13] was 0.1 µg/mL, the MIC90 [14] was 0.012 µg/mL and the MIC90 [15] was 0.05 µg/mL. For the same compound, the MIC90 [16] was 0.012 µg/mL, the MIC90 [17] was 0.006 µg/mL and the MIC90 [18] was 0.05 µg/mL. For the same compound, the MIC90 [19] was 0.1 µg/mL, the MIC90 [20] was 0.1 µg/mL and the MIC90 [21] was 0.2 µg/mL. It also gave an MIC90 [22] of 0.2 µg/mL, an MIC90 [23] of 0.2 µg/mL and an MIC90 [24] of 0.05 µg/mL. For the same compound, the MIC90 [25] was 0.2 µg/mL, the MIC90 [26] was 0.2 µg/mL and the MIC90 [27] was 0.39 µg/mL. The MIC90 [28] was 0.1 µg/mL, the MIC90 ([29]; anaerobic, Bacteroides thetaiotaomicron (GAI 0659), read-out: MIC90) was 0.2 µg/mL and the MIC90 [30] was 0.1 µg/mL. For the same compound, the MIC90 [31] was 0.1 µg/mL, the MIC90 (Moraxella species) was 0.13 µg/mL and the MIC90 (Pseudomonas aeruginosa) was 4 µg/mL. It also gave an MIC90 (Haemophilus influenzae) of no more than 0.06 µg/mL, an MIC90 (Staphylococcus aureus) of 1 µg/mL and an MIC90 [32] of 0.5 µg/mL. For the same compound, the MIC90 (Streptococcus pneumoniae) was 0.13 µg/mL, the MIC90 (Corynebacterium species) was 2 µg/mL and the MIC90 (Propionibacterium acnes) was 0.25 µg/mL. For the same compound, the MIC90 [33] was 8 µg/mL, the MIC90 [34] was 4 µg/mL and the MIC90 [35] was 32 µg/mL. It also gave an MIC90 [36] of 0.13 µg/mL.

In the case of `CC1CCc2c(N3CCC(O)CC3)c(F)cc3c(=O)c(C(=O)O)cn1c23` (centres unmarked) [Nadifloxacin], the MIC90 [1] is reported as 0.2 mμg/mL, the MIC90 [2] is reported as 0.006 µg/mL (≈ 0.0166 µM) and the MIC90 [3] is reported as 0.39 µg/mL (≈ 1.08 µM). It also gave an MIC90 [4] of 0.05 µg/mL (≈ 0.139 µM), an MIC90 [5] of 0.024 µg/mL (≈ 0.0666 µM) and an MIC90 [6] of 0.024 µg/mL (≈ 0.0666 µM). It also gave an MIC90 [7] of 0.1 µg/mL (≈ 0.277 µM), an MIC90 [8] of 0.78 µg/mL (≈ 2.16 µM) and an MIC90 [9] of 0.78 µg/mL (≈ 2.16 µM). It also gave an MIC90 [10] of 0.78 µg/mL (≈ 2.16 µM), an MIC90 [11] of 0.78 µg/mL (≈ 2.16 µM) and an MIC90 [12] of 0.78 µg/mL (≈ 2.16 µM). For the same compound, the MIC90 [13] was 0.1 µg/mL (≈ 0.277 µM), the MIC90 [14] was 0.006 µg/mL (≈ 0.0166 µM) and the MIC90 [15] was 0.05 µg/mL (≈ 0.139 µM). For the same compound, the MIC90 [16] was 0.024 µg/mL (≈ 0.0666 µM), the MIC90 [17] was 0.024 µg/mL (≈ 0.0666 µM) and the MIC90 [18] was 0.1 µg/mL (≈ 0.277 µM). It also gave an MIC90 [19] of 0.39 µg/mL (≈ 1.08 µM), an MIC90 [20] of 0.78 µg/mL (≈ 2.16 µM) and an MIC90 [21] of 0.78 µg/mL (≈ 2.16 µM). It also gave an MIC90 [22] of 0.2 µg/mL (≈ 0.555 µM), an MIC90 [23] of 0.39 µg/mL (≈ 1.08 µM) and an MIC90 [24] of 0.2 µg/mL (≈ 0.555 µM). The MIC90 [25] was 0.2 µg/mL (≈ 0.555 µM), the MIC90 [26] was 0.2 µg/mL (≈ 0.555 µM) and the MIC90 [27] was 0.78 µg/mL (≈ 2.16 µM). For the same compound, the MIC90 [28] was 1.56 µg/mL (≈ 4.33 µM), the MIC90 ([29]; Bacteroides thetaiotaomicron) was 1.56 µg/mL (≈ 4.33 µM) and the MIC90 [30] was 0.78 µg/mL (≈ 2.16 µM). For the same compound, the MIC90 [31] was 0.78 µg/mL (≈ 2.16 µM).
